Patent US9241976B2, “Use of HDL-related molecules to treat and prevent proinflammatory conditions” (THE REGENTS OF THE UNIVERSITY OF CALIFORNIA, priority 2011, dated 2016)

Columns and labels:
CT26 cells [1] = experiment: CT26 proliferation assay (BrdU incorporation); assay type: cell-based, mouse; settings: Example 5; 10 mg/mL, 48 hours
Protocol: The bHDL were dissolved in H2O.
(§1) The peptides were dissolved in H2O.

APC^min/+ mice = APC^min/+ mice study, intestinal tumors; assay type: in vivo; settings: C57BL/6J-APC^min/+ mice; 100 mg/kg/d in mouse chow for 8 weeks
Protocol: (§2) 6-week-old APC^Min/+ male mice on a C57BL/6J background were treated with bHDL 100 mg/kg/day administered in a chow diet. After 8 weeks treatment, mice were sacrificed. The entire intestine was immediately removed, fixed in formalin and 70% ethanol. The intestine was opened and examined under a dissecting microscope to count and measure the tumors.
as §2, with “Six-week-oldAPC^min/+” for “6-week-old APC^Min/+”, “L-4F or sc-4F at” for “bHDL”, “mg/kg/d” for “mg/kg/day”

cyclin D1 and cyclin A = experiment: Western blot of cyclin D1 and cyclin A in CT26 cells; assay type: cell-based, mouse
Protocol: Total cell proteins were collected after treatment in cell lysis buffer containing 0.1 mol/L NaCl, 5 mmol/L EDTA, 50 mmol/L sodium orthovanadate, 1% Triton X-100, and protease inhibitor tablet in 50 mmol/L Tris buffer (pH 7.5). Twenty micrograms of total proteins were separated by SDS-PAGE and transferred onto nitrocellulose membrane and followed by incubation with primary antibody at 4° C. in 5% skim milk and 0.1% Tween-20. Anti-cyclin D1 and anti-cyclin A rabbit polyclonal antibodies were used at 1:1,000 dilution, and anti-b-actin polyclonal antibody was used at 1:2,000 dilution.

CT26 cells [2] = experiment: LPA-induced viability of CT26 cells; assay type: cell-based, mouse; settings: L-4F 10 mg/mL with LPA 5, 10, 48 hours
Protocol: FIGS. 17A-17B. HDL mimetic, L-4F inhibits LPA induced viability of CT26 cells and reduces LPA levels in cell culture medium. FIG. 17A, CT26 cells were cultured as described in Example 5 and incubated with either L-4F at 10 mg/mL or LPA at a concentration 5, 10, […], or cells were treated with both L-4F and LPA for 48 hours. All experiments were conducted in triplicate and each assay was carried out in quadruplicates. Data are represented as the mean±SD of the percent of control cells. FIG. 17B, LPA levels were measured in the cell culture medium after 48 hours of treatment.
as §1

HIF-1α = experiment: Hypoxia response element (HRE) luciferase reporter assay in OV2008 cells; assay type: cell-based, human
Protocol: In brief, OV2008 cells were plated at 2×10^5 cells per well in a six-well plate and grown in complete media overnight. Then, pGL3-Epo-hypoxia response element (HRE)-Luc plasmid was transfected into cells by using Lipofectamine 2000 (Invitrogen). After 24 h, cells were starved overnight and subjected to L-4F treatment in the presence or absence of stimulators. A reporter assay system (Promega, Madison, Wis.) was used for the measurement of luciferase activity.

ERK1/2 = experiment: Insulin-stimulated phosphorylation of ERK1/2 in OV2008 cells, Western blot; assay type: cell-based, human; settings: 10 μg/ml, insulin 200 nM
Protocol: FIGS. 10A-10B. Effect of L-4F on the insulin-stimulated activation of downstream signaling molecules in OV2008 cells. After an overnight starvation, OV2008 cells were treated with L-4F (10 μg/ml) for 1 h, and insulin was added at a final concentration of 200 nM. Cell lysates were collected at various time points and subjected to Western blot analysis. FIG. 10A, L-4F inhibits insulin-stimulated phosphorylation of p70s6 kinase and subsequent HIF-1α expression in OV2008 cells. FIG. 10B, effect of L-4F on insulinstimulated phosphorylation of ERK1/2 and Akt in OV2008 cells.
Western blot analyses were performed as described previously (Gao et al., 2011). In brief, cell lysates were collected in a lysis buffer containing 0.1 MNaCl, 5 mM EDTA, 50 μM sodium orthovanadate, 1% Triton X-100, and protease inhibitor tablet (Roche Diagnostics, Indianapolis, Ind.) in 50 mM Tris buffer, pH 7.5, loaded onto 4 to 12% Bis-Tris gel (Invitrogen), transferred to polyvinylidene difluoride membrane, and incubated with the appropriate antibodies. […]

CT26 cells [3] = settings: BALB/c, mouse, 48 hours
Protocol: (§3) CT26 cell line derived from N-nitroso-N-methyl urethane-induced mouse colon carcinoma of BALB/c origin was purchased from the American Type Culture Collection (ATCC). CT26 cells (2,000 cells per well) were first cultured in complete medium in 96-well culture plates, and 24 hours later the medium was replaced with serum free medium. Following an overnight incubation, the cells were either treated with vehicle (control), or treated with 10 μg/mL of either bHDL. The bHDL were dissolved in H2O. Cells were incubated for an additional 48 hours and assayed for viability using the MTS assays kit (Promega) according to the manufacturer's protocol.
(§4) CT26 cell line derived from N-nitroso-N-methyl urethane-induced mouse colon carcinoma of BALB/c origin was purchased from the American Type Culture Collection. CT26 cells (2,000 cells per well) were first cultured in complete medium in 96-well culture plates, and 24 hours later the medium was replaced with serum-free medium. Following an overnight incubation, the cells were either treated with vehicle (control) or treated with 10 mg/mL of either L-4F or G* peptide. The peptides were dissolved in H2O. Cells were incubated for an additional 48 hours and assayed for viability using the MTS assay kit (Promega) according to the manufacturer's protocol.

[4] = reference (17); cited from earlier work
[5] = tested on: HDL anti-inflammatory properties; settings: 0.43 mg/kg daily, intravenous infusion 7 days or subcutaneously 28 days, patients with coronary heart disease (Watson and colleagues); cited from earlier work
CT26 cells [6] = experiment: CT26 cell viability, MTS assay; settings: Example 6; MTS assay, within 48 hours of treatment
Protocol: as §3, §4

## Ac-DWFKAFYDKVAEKFKEAF-NH2 [L-4F, Ac-D-W-F-K-A-F-Y-D-K-V-A-E-K-F-K-E-A-F-NH2]
CT26 cells [1]
  proliferation of CT26 cells, BrdUrd incorporation: significantly inhibited
APC^min/+ mice
  numbers of tumors of diameter 1-3 mm: 36.8
  numbers of tumors of diameter >3 mm: 5
  total tumor numbers in the intestinal tract, percent of the control: 60%
Cyclin D1 and cyclin A
  expression of cyclin D1 and cyclin A: significantly lower
CT26 cells [2]
  LPA-induced viability: significantly reduced
HIF-1α; OV2008 cells stimulated first with CoCl2 or insulin, 10 μg/ml
  transcription of downstream HIF-1α target genes (HRE reporter), post-treatment: inhibition of the transcription
HIF-1α; OV2008 cells, 10 μg/ml pretreatment 1 h
  CoCl2- and insulin-mediated induction of HRE luciferase activity: significantly inhibited
ERK1/2
  insulin-stimulated activation of ERK1/2: inhibited activation
CT26 cells [3]; 10 μg/mL
  Cell viability reduced by, compared with control: more than 20%
CT26 cells [3]; 10 mg/mL
  Cell viability reduced, compared with control: more than 25%
[4]
  binding of LPA: binds
[5]
  HDL anti-inflammatory properties: did not achieve any improvement
CT26 cells [6]
  CT26 cell viability vs vehicle-treated controls: reduced cell viability
